How the values were obtained:
SYK kinase = molecular target: T1, SYK kinase (Homo sapiens, UniProt P43405); assay: SYK Assay (OMNIA KINASE ASSAY, SOX peptide fluorescence); assay type: biochemical; settings: apparent Ki calculated from the IC50 using the Cheng-Prusoff equation; 1 mM ATP, 30° C.; read-out: SYK Activities: Ki
T1 construct: purchased Invitrogen, Carlsbad
Method in brief: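 Continuous Omnia assay: SYK phosphorylation of SOX-labelled Tyr 7 peptide (10 µM) with 1 mM ATP and 0.2 mM DTT at 30 °C. Fluorescence (ex 360/em 485 nm) read every 30 s for 30 min. Reaction velocity versus inhibitor concentration gives IC50, converted to apparent Ki by Cheng-Prusoff.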

LRRK2 = LRRK2 (Homo sapiens, UniProt Q5S007); assay: LRRK2-LRRK2 G2019S-Assay (LanthaScreen Eu Kinase Binding Assay); settings: 5 nM LRRK2 or their mutants, 10 nM tracer 236, RT 1 h; read-out: LRRK2 Activities: IC50
Chain of LRRK2 (Q5S007 970-2527 limits assumed): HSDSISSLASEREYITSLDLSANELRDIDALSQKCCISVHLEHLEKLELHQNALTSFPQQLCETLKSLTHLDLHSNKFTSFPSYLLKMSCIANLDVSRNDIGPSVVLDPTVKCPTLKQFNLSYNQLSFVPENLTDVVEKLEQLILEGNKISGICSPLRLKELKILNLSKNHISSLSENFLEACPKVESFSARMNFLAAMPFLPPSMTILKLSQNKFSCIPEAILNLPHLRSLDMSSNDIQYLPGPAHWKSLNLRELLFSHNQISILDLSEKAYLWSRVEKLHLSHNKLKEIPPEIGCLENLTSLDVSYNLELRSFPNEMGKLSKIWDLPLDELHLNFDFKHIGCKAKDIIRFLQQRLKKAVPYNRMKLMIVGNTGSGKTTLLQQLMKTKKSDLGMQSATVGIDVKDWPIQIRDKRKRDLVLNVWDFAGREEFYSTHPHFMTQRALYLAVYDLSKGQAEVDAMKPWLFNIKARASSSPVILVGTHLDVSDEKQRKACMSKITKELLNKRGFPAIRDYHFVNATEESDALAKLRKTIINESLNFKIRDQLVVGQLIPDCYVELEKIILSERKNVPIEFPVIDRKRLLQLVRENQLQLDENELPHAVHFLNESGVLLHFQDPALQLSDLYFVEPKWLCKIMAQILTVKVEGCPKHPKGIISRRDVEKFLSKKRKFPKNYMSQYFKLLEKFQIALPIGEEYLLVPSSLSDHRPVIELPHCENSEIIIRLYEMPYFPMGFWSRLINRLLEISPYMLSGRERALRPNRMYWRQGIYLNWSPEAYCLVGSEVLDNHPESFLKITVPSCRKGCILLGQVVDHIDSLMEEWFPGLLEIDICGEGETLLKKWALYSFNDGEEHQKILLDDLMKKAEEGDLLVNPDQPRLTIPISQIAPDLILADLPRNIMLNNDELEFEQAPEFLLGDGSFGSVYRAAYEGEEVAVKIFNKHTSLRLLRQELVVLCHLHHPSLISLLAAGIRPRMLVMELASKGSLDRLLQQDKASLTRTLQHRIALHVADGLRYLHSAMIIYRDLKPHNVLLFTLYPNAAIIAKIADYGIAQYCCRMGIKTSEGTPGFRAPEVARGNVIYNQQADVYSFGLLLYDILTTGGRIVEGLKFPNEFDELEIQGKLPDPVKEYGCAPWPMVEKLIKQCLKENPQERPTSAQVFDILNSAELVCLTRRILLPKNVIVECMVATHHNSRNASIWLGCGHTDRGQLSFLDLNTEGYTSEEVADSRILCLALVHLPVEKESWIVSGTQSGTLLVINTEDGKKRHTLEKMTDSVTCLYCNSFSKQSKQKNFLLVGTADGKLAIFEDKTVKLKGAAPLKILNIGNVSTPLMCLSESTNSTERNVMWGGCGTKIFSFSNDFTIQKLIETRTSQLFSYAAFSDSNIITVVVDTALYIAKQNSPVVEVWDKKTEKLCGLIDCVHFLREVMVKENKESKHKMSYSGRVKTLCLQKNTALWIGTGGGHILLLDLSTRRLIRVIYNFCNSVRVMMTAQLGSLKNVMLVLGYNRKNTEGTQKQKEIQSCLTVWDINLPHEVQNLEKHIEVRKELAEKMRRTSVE
Description: In the assay LanthaScreen™ Eu Kinase Binding Assay by Invitrogen Corporation (Carlsbad) the effect of invention of a compound on the phosphorylation is determined by measurement of fluorescence intensity emission ratio based on the binding and displacement of a proprietary, Alexa Fluor® 647-labeled, ATP-competitive kinase inhibitor scaffold (kinase tracer) to the kinase of interest. Binding of the tracer to the kinase is detected using a europium-labeled anti-tag antibody, which binds to the kinase of interest. Simultaneous binding of both the tracer and antibody to the kinase results in a high degree of FRET (fluorescence resonance energy transfer) from the europium (Eu) donor fluorophore to the Alexa Fluor® 647 acceptor fluorophore on the kinase tracer. Binding of an inhibitor to the kinase competes for binding with the tracer, resulting in a loss of FRET. The fluorescence intensity ratio is directly proportional to the amount of peptide phosphorylation.
To the wells of an 384 well small volume plate (Greiner, Frickenhausen) are added (i) the compound under test in 5% DMSO/distilled water (5 μl), (ii) 5 μl of the kinase antibody mixture resulting in a final concentration 5 nM LRRK2 or their mutants, 2 nM EU-Anti-GST antibody in 1× kinase buffer A. The reaction was started with addition of (iii) 5 μl resulting in a final concentration of 10 nM tracer 236. The assay plate was incubated at RT for 1 h and fluorescence intensitiy readings were collected using a TECAN M1000 at two wavelengthes of λex 340/λem 615 nm and λex 340/λm 665 nm with a delay time of 100 μs and an integration time of 200 μs after 60 minutes. The emission ratio was calculated by division of the acceptor/tracer emission ([…]) by the antibody/donor emission ([…]). The inhibitor concentration was plotted versus the emission ratio to determine the IC50 using XLFit 5.0 (IDBS, Guildford) to fit to a sigmoidal dose response curve with a variable slope.

Structure (SMILES)	Ki (SYK kinase)	IC50 (LRRK2)
Cc1nc2cc(Nc3nc(-c4ccccc4)nc4cn[nH]c34)ccc2[nH]1 [Example #9, N-(2-methyl-1H-benzo[d]imidazol-5-yl)-5-phenyl-1H-pyrazolo[4,3-d]pyrimidin-7-amine]	0.01 to 0.1 µM	0.1 to 1 µM
c1cc2[nH]ncc2cc1Nc1nc(-c2ccc(N3CCCC3)nc2)nc2cn[nH]c12 [Example #14, N-(1H-indazol-5-yl)-5-(6-(pyrrolidin-1-yl)pyridin-3-yl)-1H-pyrazolo[4,3-d]pyrimidin-7-amine]	0.01 to 0.1 µM	0.1 to 1 µM
CN(C)c1ccc(Nc2nc(-c3ccncc3)nc3cn[nH]c23)cc1 [Example #17, N1,N1-dimethyl-N4-(5-(pyridin-4-yl)-1H-pyrazolo[4,3-d]pyrimidin-7-yl)benzene-1,4-diamine]	0.01 to 0.1 µM	0.1 to 1 µM
COc1ccc(Nc2nc(-c3ccncc3)nc3cn[nH]c23)cc1OC [Example #18, N-(3,4-dimethoxyphenyl)-5-(pyridin-4-yl)-1H-pyrazolo[4,3-d]pyrimidin-7-amine]	0.01 to 0.1 µM	0.1 to 1 µM
COc1ccc(-c2nc(Nc3ccc4cn[nH]c4c3)c3[nH]ncc3n2)cc1OC [Example #22, 5-(3,4-dimethoxyphenyl)-N-(1H-indazol-6-yl)-1H-pyrazolo[4,3-d]pyrimidin-7-amine]	0.01 to 0.1 µM	0.1 to 1 µM
COc1ccc(Nc2nc(-c3ccc(OC)c(OC)c3)nc3cn[nH]c23)cc1OC [Example #24, N,5-bis(3,4-dimethoxyphenyl)-1H-pyrazolo[4,3-d]pyrimidin-7-amine]	0.01 to 0.1 µM	0.1 to 1 µM
COc1ccc(-c2nc(Nc3ccc4c(c3)NC(=O)CO4)c3[nH]ncc3n2)cc1OC [Example #26, 6-((5-(3,4-dimethoxyphenyl)-1H-pyrazolo[4,3-d]pyrimidin-7-yl)amino)-2H-benzo[b][1,4]oxazin-3(4H)-one]	0.01 to 0.1 µM	0.01 to 0.1 µM
COc1ccc(-c2nc(Nc3cc[nH]n3)c3[nH]ncc3n2)cc1OC [Example #41, 5-(3,4-dimethoxyphenyl)-N-(1H-pyrazol-3-yl)-1H-pyrazolo[4,3-d]pyrimidin-7-amine]		0.1 to 1 µM
O=S(=O)(NC1CC1)c1cccc(Nc2nc(-c3cccs3)nc3cn[nH]c23)c1 [Example #261, N-cyclopropyl-3-((5-(thiophen-2-yl)-1H-pyrazolo[4,3-d]pyrimidin-7-yl)amino)benzenesulfonamide]		0.1 to 1 µM
O=C1CCc2ccc(Nc3nc(-c4ccc5c(c4)NC(=O)CO5)nc4cn[nH]c34)cc2N1 [Example #287, 6-(7-((2-oxo-1,2,3,4-tetrahydroquinolin-7-yl)amino)-1H-pyrazolo[4,3-d]pyrimidin-5-yl)-2H-benzo[b][1,4]oxazin-3(4H)-one]	0.01 to 0.1 µM	
CS(=O)(=O)c1ccccc1Nc1nc(-c2cccs2)nc2cn[nH]c12 [Example #291, N-(2-(methylsulfonyl)phenyl)-5-(thiophen-2-yl)-1H-pyrazolo[4,3-d]pyrimidin-7-amine]	0.01 to 0.1 µM	
CN(C)Cc1cccc(Nc2nc(-c3cccs3)nc3cn[nH]c23)c1 [Example #292, N-(3-((dimethylamino)methyl)phenyl)-5-(thiophen-2-yl)-1H-pyrazolo[4,3-d]pyrimidin-7-amine]	0.1 to 1 µM	
COc1ccc(Nc2nc(-c3ccc4c(c3)NC(=O)CO4)nc3cn[nH]c23)cc1OC [Example #299, 6-(7-((3,4-dimethoxyphenyl)amino)-1H-pyrazolo[4,3-d]pyrimidin-5-yl)-2H-benzo[b][1,4]oxazin-3(4H)-one]	0.01 to 0.1 µM	
CC(C)(C)c1cccc(Nc2nc(-c3cccs3)nc3cn[nH]c23)c1 [Example #305, N-(3-(tert-butyl)phenyl)-5-(thiophen-2-yl)-1H-pyrazolo[4,3-d]pyrimidin-7-amine]	0.1 to 1 µM	
COC(=O)c1cccc(-c2nc(Nc3ccc4cn[nH]c4c3)c3[nH]ncc3n2)c1 [Example #307, methyl 3-(7-((1H-indazol-6-yl)amino)-1H-pyrazolo[4,3-d]pyrimidin-5-yl)benzoate]	0.1 to 1 µM	
CN(C)Cc1ccc(Nc2nc(-c3cccc(N)c3)nc3cn[nH]c23)cc1 [Example #309, 5-(3-aminophenyl)-N-(4-((dimethylamino)methyl)phenyl)-1H-pyrazolo[4,3-d]pyrimidin-7-amine]	0.01 to 0.1 µM	
CN(C)Cc1cccc(Nc2nc(-c3ccccc3F)nc3cn[nH]c23)c1 [Example #312, N-(3-((dimethylamino)methyl)phenyl)-5-(2-fluorophenyl)-1H-pyrazolo[4,3-d]pyrimidin-7-amine]	0.1 to 1 µM	

Further lines, results first:

Ki (SYK kinase)	IC50 (LRRK2)	Structure (SMILES)
< 0.01 µM	0.1 to 1 µM	c1ccc(-c2nc(Nc3ccc4[nH]ncc4c3)c3[nH]ncc3n2)cc1 [Example #1, N-(1H-indazol-5-yl)-5-phenyl-1H-pyrazolo[4,3-d]pyrimidin-7-amine]
< 0.01 µM	0.1 to 1 µM	c1ccc(-c2nc(Nc3ccc4[nH]nnc4c3)c3[nH]ncc3n2)cc1 [Example #2, N-(1H-benzo[d][1,2,3]triazol-5-yl)-5-phenyl-1H-pyrazolo[4,3-d]pyrimidin-7-amine]
< 0.01 µM	0.1 to 1 µM	CN(C)c1ccc(Nc2nc(-c3ccccc3)nc3cn[nH]c23)cc1 [Example #4, N1,N1-dimethyl-N4-(5-phenyl-1H-pyrazolo[4,3-d]pyrimidin-7-yl)benzene-1,4-diamine]
< 0.01 µM	0.1 to 1 µM	COc1ccc(Nc2nc(-c3ccccc3)nc3cn[nH]c23)cc1OC [Example #6, N-(3,4-dimethoxyphenyl)-5-phenyl-1H-pyrazolo[4,3-d]pyrimidin-7-amine]
< 0.01 µM	0.1 to 1 µM	c1ccc(-c2nc(Nc3ccc(N4CCOCC4)cc3)c3[nH]ncc3n2)cc1 [Example #7, N-(4-morpholinophenyl)-5-phenyl-1H-pyrazolo[4,3-d]pyrimidin-7-amine]
< 0.01 µM	0.1 to 1 µM	O=C(O)c1ccc(Nc2nc(-c3ccccc3)nc3cn[nH]c23)cc1 [Example #10, 4-((5-phenyl-1H-pyrazolo[4,3-d]pyrimidin-7-yl)amino)benzoic-acid]
< 0.01 µM	0.1 to 1 µM	c1cc(-c2nc(Nc3ccc4cn[nH]c4c3)c3[nH]ncc3n2)ccn1 [Example #16, N-(1H-indazol-6-yl)-5-(pyridin-4-yl)-1H-pyrazolo[4,3-d]pyrimidin-7-amine]
< 0.01 µM	0.01 to 0.1 µM	COc1ccc(-c2nc(Nc3ccc(N(C)C)cc3)c3[nH]ncc3n2)cc1OC [Example #23, N1-(5-(3,4-dimethoxyphenyl)-1H-pyrazolo[4,3-d]pyrimidin-7-yl)-N4,N4-dimethylbenzene-1,4-diamine]
< 0.01 µM	0.1 to 1 µM	COc1ccc(-c2nc(Nc3ccc(N4CCOCC4)cc3)c3[nH]ncc3n2)cc1OC [Example #25, 5-(3,4-dimethoxyphenyl)-N-(4-morpholinophenyl)-1H-pyrazolo[4,3-d]pyrimidin-7-amine]
< 0.01 µM		COc1ccc(Nc2nc(-c3ccc(F)cc3F)nc3cn[nH]c23)cc1OC [Example #285, 5-(2,4-difluorophenyl)-N-(3,4-dimethoxyphenyl)-1H-pyrazolo[4,3-d]pyrimidin-7-amine]
< 0.01 µM		CC(=O)N1CCN(c2ccc(Nc3nc(-c4ccc5c(c4)NC(=O)CO5)nc4cn[nH]c34)cc2)CC1 [Example #298, 6-(7-((4-(4-acetylpiperazin-1-yl)phenyl)amino)-1H-pyrazolo[4,3-d]pyrimidin-5-yl)-2H-benzo[b][1,4]oxazin-3(4H)-one]

From patent publication US9802937B2, “Substituted pyrazolo{4,3-D}pyrimidines as kinase inhibitors” (ORIGENIS GMBH, priority 2011, dated 2017)
